US20250170248A1, “SMARCA DEGRADERS AND USES THEREOF” (Kymera Therapeutics, Inc., priority 2021, published 2025)

Key:
Format in all cases: cell-based
SMARCA2 [1] = molecular target: T1, SMARCA2 (Homo sapiens, UniProt P51531); assay: MSD SMARCA2 degradation in A549 cell line; details: 24 h; for Dmax: A549, A549 cells; for DC50: A549 cells, read-out: SMARCA2 MSD A549 degradation 24 h: Average external-Abs DC50
How it was run: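 A549 cells treated 24 h with compound, 3-fold series from 1000 nM. Lysates captured on MSD plates and SMARCA2 quantified with anti-SMARCA2 and SULFO-TAG secondary antibodies (electrochemiluminescence). DC50 and Dmax (% degradation at 24 h) reported as letter bins.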

SMARCA4 = molecular target: T2, SMARCA4 (Homo sapiens, UniProt P51532); assay: SMARCA4 Western blot degradation in MV4-11 cells; details: 24 h; for Dmax: MV4-11, MV4-11 cells, read-out: SMARCA4 MSD MV411 degradation 24 h: average Dmax %; for DC50: MV4-11 cells, read-out: SMARCA4 MSD MV411 degradation 24 h: Mean external-Abs DC50
T2 construct: SMARCA2/SMARCA4 protein degradation selectivity in MV4-11 cells; endogenous in cells; host or cells: MV4-11
T2 sequence (P51532 whole entry): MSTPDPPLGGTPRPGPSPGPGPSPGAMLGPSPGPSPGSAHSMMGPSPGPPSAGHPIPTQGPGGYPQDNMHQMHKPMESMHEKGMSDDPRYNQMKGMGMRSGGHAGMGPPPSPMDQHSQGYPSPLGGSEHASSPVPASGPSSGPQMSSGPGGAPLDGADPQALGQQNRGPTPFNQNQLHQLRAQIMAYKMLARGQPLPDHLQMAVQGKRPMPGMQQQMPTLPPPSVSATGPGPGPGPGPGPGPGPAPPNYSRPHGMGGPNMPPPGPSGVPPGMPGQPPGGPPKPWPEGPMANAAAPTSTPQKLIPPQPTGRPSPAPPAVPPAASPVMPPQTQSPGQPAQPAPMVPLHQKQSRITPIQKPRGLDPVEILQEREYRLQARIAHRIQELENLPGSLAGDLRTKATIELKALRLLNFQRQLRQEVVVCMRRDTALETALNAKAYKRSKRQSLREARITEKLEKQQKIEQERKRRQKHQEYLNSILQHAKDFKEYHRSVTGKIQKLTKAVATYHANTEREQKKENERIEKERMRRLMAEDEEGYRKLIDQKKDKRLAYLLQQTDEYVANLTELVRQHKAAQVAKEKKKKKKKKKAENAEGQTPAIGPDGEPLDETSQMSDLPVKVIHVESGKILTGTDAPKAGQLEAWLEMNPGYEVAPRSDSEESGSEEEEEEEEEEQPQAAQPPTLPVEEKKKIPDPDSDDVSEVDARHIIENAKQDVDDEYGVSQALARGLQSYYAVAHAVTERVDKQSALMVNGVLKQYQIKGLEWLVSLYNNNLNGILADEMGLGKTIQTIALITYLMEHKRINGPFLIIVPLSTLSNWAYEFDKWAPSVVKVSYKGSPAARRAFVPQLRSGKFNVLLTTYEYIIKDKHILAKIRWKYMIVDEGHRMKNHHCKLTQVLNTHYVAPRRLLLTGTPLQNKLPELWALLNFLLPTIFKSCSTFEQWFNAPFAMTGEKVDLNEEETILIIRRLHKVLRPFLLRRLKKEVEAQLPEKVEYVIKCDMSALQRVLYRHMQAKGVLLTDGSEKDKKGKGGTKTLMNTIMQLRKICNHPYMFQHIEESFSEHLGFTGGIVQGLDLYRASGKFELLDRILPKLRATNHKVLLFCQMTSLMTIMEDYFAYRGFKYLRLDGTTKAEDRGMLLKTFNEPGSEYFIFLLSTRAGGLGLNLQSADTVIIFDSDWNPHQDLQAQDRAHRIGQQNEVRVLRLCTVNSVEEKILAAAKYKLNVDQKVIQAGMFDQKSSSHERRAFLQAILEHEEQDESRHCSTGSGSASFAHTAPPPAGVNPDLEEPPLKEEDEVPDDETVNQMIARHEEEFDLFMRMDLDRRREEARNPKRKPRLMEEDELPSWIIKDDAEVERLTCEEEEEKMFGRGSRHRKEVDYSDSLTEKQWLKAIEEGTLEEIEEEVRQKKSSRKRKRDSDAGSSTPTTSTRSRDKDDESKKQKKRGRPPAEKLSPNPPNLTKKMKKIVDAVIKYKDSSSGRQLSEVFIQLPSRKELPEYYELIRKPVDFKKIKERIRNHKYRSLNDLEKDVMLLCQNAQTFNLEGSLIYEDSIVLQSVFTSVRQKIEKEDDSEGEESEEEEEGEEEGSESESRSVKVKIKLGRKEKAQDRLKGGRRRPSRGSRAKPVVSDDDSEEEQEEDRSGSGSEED
How it was run: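 MV4-11 cells (4×10^6/well) treated with compound for 24 h, lysed in RIPA with protease/phosphatase inhibitors, and SMARCA2, SMARCA4 and beta-actin detected by Western blot with LI-COR readout. Values reported as letter-coded DC50, 24 h Dmax % and SMARCA2/4 selectivity fold.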

SMARCA2 [2] = molecular target: T1, SMARCA2; assay: SMARCA2 Western blot degradation in MV4-11 cells; set-up: SMARCA2/SMARCA4 protein degradation selectivity in MV4-11 cells; endogenous in cells; host or cells: MV4-11; details: for Dmax: MV4-11, MV4-11 cells, read-out: SMARCA2 MSD MV411 degradation 24 h: average Dmax %; for Dmax / DC50: 24 h; for DC50 / Selectivity in MV411: MV4-11 cells; for DC50: read-out: SMARCA2 MSD MV411 degradation 24 h: Mean external-Abs DC50; for Selectivity in MV411: SMARCA2/4 selectivity

T1 sequence (P51531 whole entry): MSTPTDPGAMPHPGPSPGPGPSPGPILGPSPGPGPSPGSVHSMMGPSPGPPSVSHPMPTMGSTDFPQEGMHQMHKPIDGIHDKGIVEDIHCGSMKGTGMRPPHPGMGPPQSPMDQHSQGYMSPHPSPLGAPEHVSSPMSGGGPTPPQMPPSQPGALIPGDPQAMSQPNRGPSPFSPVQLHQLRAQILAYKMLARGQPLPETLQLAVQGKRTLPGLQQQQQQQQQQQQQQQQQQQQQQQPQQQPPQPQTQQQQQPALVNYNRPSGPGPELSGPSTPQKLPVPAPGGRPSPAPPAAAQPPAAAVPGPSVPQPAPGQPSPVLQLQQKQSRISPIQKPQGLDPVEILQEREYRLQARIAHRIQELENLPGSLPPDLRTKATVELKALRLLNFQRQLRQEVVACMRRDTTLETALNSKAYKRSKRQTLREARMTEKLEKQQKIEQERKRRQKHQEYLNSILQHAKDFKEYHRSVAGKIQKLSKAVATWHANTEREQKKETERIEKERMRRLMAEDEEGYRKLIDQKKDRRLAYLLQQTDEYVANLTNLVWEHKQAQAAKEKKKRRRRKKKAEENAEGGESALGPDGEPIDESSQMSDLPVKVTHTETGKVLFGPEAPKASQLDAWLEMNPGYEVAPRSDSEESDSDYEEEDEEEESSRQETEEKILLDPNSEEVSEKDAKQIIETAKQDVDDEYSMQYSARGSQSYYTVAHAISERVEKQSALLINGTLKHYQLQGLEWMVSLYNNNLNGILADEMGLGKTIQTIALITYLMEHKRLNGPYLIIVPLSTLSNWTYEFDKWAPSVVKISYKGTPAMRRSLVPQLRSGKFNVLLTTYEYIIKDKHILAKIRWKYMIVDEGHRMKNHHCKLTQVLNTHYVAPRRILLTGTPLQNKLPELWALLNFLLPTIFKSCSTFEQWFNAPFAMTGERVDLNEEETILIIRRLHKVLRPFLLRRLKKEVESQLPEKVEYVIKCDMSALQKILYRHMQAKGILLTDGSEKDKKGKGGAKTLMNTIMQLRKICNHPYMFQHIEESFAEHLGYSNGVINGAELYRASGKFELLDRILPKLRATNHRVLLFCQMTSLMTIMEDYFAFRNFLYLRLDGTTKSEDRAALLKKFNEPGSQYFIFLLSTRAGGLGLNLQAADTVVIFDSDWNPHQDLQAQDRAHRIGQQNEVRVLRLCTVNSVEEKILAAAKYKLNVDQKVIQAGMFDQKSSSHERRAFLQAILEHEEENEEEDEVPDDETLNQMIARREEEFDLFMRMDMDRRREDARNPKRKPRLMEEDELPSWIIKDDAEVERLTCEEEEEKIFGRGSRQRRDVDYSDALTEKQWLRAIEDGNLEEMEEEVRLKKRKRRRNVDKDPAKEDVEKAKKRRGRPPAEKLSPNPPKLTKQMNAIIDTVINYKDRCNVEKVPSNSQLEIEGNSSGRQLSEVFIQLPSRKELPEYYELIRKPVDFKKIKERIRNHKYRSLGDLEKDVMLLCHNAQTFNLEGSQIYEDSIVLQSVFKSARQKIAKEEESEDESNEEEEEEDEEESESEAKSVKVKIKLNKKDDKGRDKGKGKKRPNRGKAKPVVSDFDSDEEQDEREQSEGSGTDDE

Row | Dmax (SMARCA2 [1]) [%] | DC50 (SMARCA2 [1]) [nM] | Dmax (SMARCA4) [%] | DC50 (SMARCA4) [nM] | Dmax (SMARCA2 [2]) [%] | DC50 (SMARCA2 [2]) [nM] | Selectivity in MV411 (SMARCA2 [2]) | Compound
1 | > 90 | > 100 | < 50 | > 100 | 50 to 70 | 10 to 100 | C (C (10-100 fold)) | C#Cc1ccc(CNC(=O)[C@@H]2C[C@@H](O)CN2C(=O)[C@@H](NC(=O)N2CCN(C[C@H]3CC[C@H](N4CCc5[nH]c6nnc(-c7ccccc7O)cc6c5[C@H]4C)CC3)CC2)C(C)(C)C)cc1 [I-200]
2 | 70 to 90 | > 100 | < 50 | > 100 | < 50 | > 100 | C (C (10-100 fold)) | C#Cc1ccc(CNC(=O)[C@@H]2C[C@@H](O)CN2C(=O)[C@@H](NC(=O)N2CCN(CC3CCN([C@H]4CC[C@@H](N5CCc6[nH]c7nnc(-c8ccccc8O)cc7c6[C@H]5C)CC4)CC3)CC2)C(C)(C)C)cc1 [I-203]
3 | 70 to 90 | > 100 | < 50 | > 100 | < 50 | > 100 | C (C (10-100 fold)) | C#Cc1ccc(CNC(=O)[C@@H]2C[C@@H](O)CN2C(=O)[C@@H](NC(=O)N2CCN(CC3CCN([C@H]4CC[C@H](N5CCc6[nH]c7nnc(-c8ccccc8O)cc7c6[C@H]5C)CC4)CC3)CC2)C(C)(C)C)cc1 [I-204]
4 | > 90 | > 100 | < 50 | > 100 | < 50 | > 100 | C (C (10-100 fold)) | C#Cc1ccc(CNC(=O)[C@@H]2C[C@@H](O)CN2C(=O)[C@@H](NC(=O)N2CC3(CC(N4CC5(CC(N6CCC(N7CCc8[nH]c9nnc(-c%10ccccc%10O)cc9c8[C@H]7C)CC6)C5)C4)C3)C2)C(C)(C)C)cc1 [I-205]
5 | 70 to 90 | > 100 | < 50 | > 100 | < 50 | > 100 | C (C (10-100 fold)) | C#Cc1ccc(CNC(=O)[C@@H]2C[C@@H](O)CN2C(=O)[C@@H](NC(=O)N2CCC(N3CC4(CC(N5CCC(N6CCc7[nH]c8nnc(-c9ccccc9O)cc8c7[C@H]6C)CC5)C4)C3)CC2)C(C)(C)C)cc1 [I-206]
6 | > 90 | > 100 | < 50 | > 100 | 70 to 90 | 1 to 10 | B (B (>100-500 fold)) | C#Cc1ccc(CNC(=O)[C@@H]2C[C@@H](O)CN2C(=O)[C@@H](NC(=O)N2CC3(CC(N4CCC(N5CC6(CC(N7CCc8[nH]c9nnc(-c%10ccccc%10O)cc9c8[C@H]7C)C6)C5)CC4)C3)C2)C(C)(C)C)cc1 [I-207]
7 | 70 to 90 | > 100 | < 50 | > 100 | < 50 | > 100 | C (C (10-100 fold)) | C#Cc1ccc(CNC(=O)[C@@H]2C[C@@H](O)CN2C(=O)[C@@H](NC(=O)N2CCC(N3CCC(N4CC5(CC(N6CCc7[nH]c8nnc(-c9ccccc9O)cc8c7[C@H]6C)C5)C4)CC3)CC2)C(C)(C)C)cc1 [I-208]
8 | 70 to 90 | > 100 | < 50 | > 100 | < 50 | > 100 | C (C (10-100 fold)) | C#Cc1ccc(CNC(=O)[C@@H]2C[C@@H](O)CN2C(=O)[C@@H](NC(=O)N2CCC(N3CC4(CC(N5CC6(CC(N7CCc8[nH]c9nnc(-c%10ccccc%10O)cc9c8[C@H]7C)C6)C5)C4)C3)CC2)C(C)(C)C)cc1 [I-209]
9 | > 90 | > 100 | < 50 | > 100 | 50 to 70 | 10 to 100 | C (C (10-100 fold)) | C#Cc1ccc(C2(NC(=O)[C@@H]3C[C@@H](O)CN3C(=O)[C@@H](NC(=O)N3CC4(CC(N5CCC(N6CCC(N7CCc8[nH]c9nnc(-c%10ccccc%10O)cc9c8[C@H]7C)CC6)CC5)C4)C3)C(C)(C)C)CC2)cc1 [I-210]
